Data taken from the OPERA property sets (Mansouri et al. 2018).

Compound | logP
c1ccc2c(c1)Sc1ccccc1S2 | 4.47
c1ccc2cc3c(cc2c1)sc1ccccc13 | 5.34
c1ccc(-c2c3ccccc3c(-c3ccccc3)c3ccccc23)cc1 | 8.46
c1cc2ccc3ccc4ccc5ccc6ccc1c1c2c3c4c5c61 | 7.64
c1ccc2c(c1)ccc1c2ccc2c3ccccc3ccc21 | 7.11
c1ccc2cc3c(ccc4c5ccccc5ccc34)cc2c1 | 7.11
c1ccc2cc3cc4cc5ccccc5cc4cc3cc2c1 | 7.11

Now from value to compound:

logP | Compound
3.75 | c1csc(-c2cccs2)c1
4.23 | c1ccc2c(c1)Cc1ccccc1O2
1.28 | c1cc(-c2ccncc2)ccn1
7.11 | c1ccc2c(c1)ccc1c2ccc2ccc3ccccc3c21
1.96 | c1ccc(-c2cccc(-c3ccccn3)n2)nc1
7.04 | c1cc2ccc3cc4cccc5ccc6cc(c1)c2c3c6c54
6.44 | c1ccc2c(c1)c1cccc3ccc4cccc2c4c31
1.5 | c1ccc(-c2ccccn2)nc1
5.05 | c1ccc2cc3c(cc2c1)oc1ccccc13
7.71 | c1ccc2c(c1)cc1ccc3cccc4c5ccccc5c2c1c34
8.39 | c1ccc2c(c1)c1ccccc1c1c3ccccc3c3ccccc3c21
